Measured values from PubChem BioAssay (NCI).
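Each compound was tested at five concentrations against cells in 96-well plates for 48 hours. Abbreviation: GI50, concentration required for 50% inhibition of growth. At the TGI there is no net growth.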

Experiments:
Test in all cases: NCI tumour cell line growth inhibition, 48 h
OVCAR-8 ovarian = test system: OVCAR-8 ovarian
HL-60(TB) leukemia = test system: HL-60(TB) leukemia
T-47D breast = test system: T-47D breast
SK-OV-3 ovarian = test system: SK-OV-3 ovarian
LOX IMVI melanoma = test system: LOX IMVI melanoma
SK-MEL-28 melanoma = test system: SK-MEL-28 melanoma
KM12 colon = test system: KM12 colon
OVCAR-4 ovarian = test system: OVCAR-4 ovarian
MDA-MB-231 breast = test system: MDA-MB-231 breast
HS 578T breast = test system: HS 578T breast
UACC-62 melanoma = test system: UACC-62 melanoma
COLO 205 colon = test system: COLO 205 colon
MCF7 breast = test system: MCF7 breast
M14 melanoma = test system: M14 melanoma
ACHN renal = test system: ACHN renal
CAKI-1 renal = test system: CAKI-1 renal
U251 CNS = test system: U251 CNS
SF-539 CNS = test system: SF-539 CNS
HCT-116 colon = test system: HCT-116 colon
SK-MEL-2 melanoma = test system: SK-MEL-2 melanoma
DU-145 prostate = test system: DU-145 prostate
RPMI-8226 leukemia = test system: RPMI-8226 leukemia
HCT-15 colon = test system: HCT-15 colon
UO-31 renal = test system: UO-31 renal
A498 renal = test system: A498 renal
786-0 renal = test system: 786-0 renal
NCI-H23 lung = test system: NCI-H23 lung
HOP-92 NSCLC = test system: HOP-92 NSCLC
UACC-257 melanoma = test system: UACC-257 melanoma
BT-549 breast = test system: BT-549 breast
SNB-75 CNS = test system: SNB-75 CNS
MALME-3M melanoma = test system: MALME-3M melanoma
NCI-H522 lung = test system: NCI-H522 lung
SNB-19 CNS = test system: SNB-19 CNS
SK-MEL-5 melanoma = test system: SK-MEL-5 melanoma
TK-10 renal = test system: TK-10 renal
SF-295 CNS = test system: SF-295 CNS
HCC-2998 colon = test system: HCC-2998 colon
RXF 393 renal = test system: RXF 393 renal
A549 NSCLC = test system: A549 NSCLC
SN12C renal = test system: SN12C renal
OVCAR-5 ovarian = test system: OVCAR-5 ovarian
IGROV1 ovarian = test system: IGROV1 ovarian
SW-620 colon = test system: SW-620 colon
NCI-H460 lung = test system: NCI-H460 lung
SR leukemia = test system: SR leukemia
OVCAR-3 ovarian = test system: OVCAR-3 ovarian
SF-268 CNS = test system: SF-268 CNS
MDA-MB-435 = test system: MDA-MB-435
K-562 leukemia = test system: K-562 leukemia
NCI/ADR-RES ovarian = test system: NCI/ADR-RES ovarian
CCRF-CEM leukemia = test system: CCRF-CEM leukemia
MOLT-4 leukemia = test system: MOLT-4 leukemia
HOP-62 NSCLC = test system: HOP-62 NSCLC
NCI-H226 lung = test system: NCI-H226 lung
HT29 colon = test system: HT29 colon
PC-3 prostate = test system: PC-3 prostate

Work on `CNCCCNCCCCNCCCN1C(=O)c2ccc3c4c(ccc(c24)C1=O)C(=O)N(CCCNCc1ccccc1OC)C3=O` yielded a GI50 (OVCAR-8 ovarian) of 2.89 µM, a TGI (OVCAR-8 ovarian) of 54.6 µM and a GI50 (HL-60(TB) leukemia) of 3.68 µM. It also gave a TGI (HL-60(TB) leukemia) of 23.4 µM, a GI50 (T-47D breast) of 0.342 µM and a TGI (T-47D breast) of 5.97 µM. The GI50 (SK-OV-3 ovarian) was 6.19 µM, the TGI (SK-OV-3 ovarian) was 61.5 µM and the GI50 (LOX IMVI melanoma) was 3.03 µM. For the same molecule, the TGI (LOX IMVI melanoma) was 14 µM, the GI50 (SK-MEL-28 melanoma) was 1.4 µM and the TGI (SK-MEL-28 melanoma) was 10.1 µM. For the same molecule, the GI50 (KM12 colon) was 2.75 µM, the TGI (KM12 colon) was 17.4 µM and the GI50 (OVCAR-4 ovarian) was 1.7 µM. It also gave a TGI (OVCAR-4 ovarian) of 9.19 µM, a GI50 (MDA-MB-231 breast) of 4.63 µM and a TGI (MDA-MB-231 breast) of 70.2 µM. For the same molecule, the GI50 (HS 578T breast) was 2.9 µM, the TGI (HS 578T breast) was 22 µM and the GI50 (UACC-62 melanoma) was 0.711 µM. It also gave a TGI (UACC-62 melanoma) of 5.06 µM, a GI50 (COLO 205 colon) of 1.38 µM and a TGI (COLO 205 colon) of 8.16 µM. The GI50 (MCF7 breast) was 2.77 µM, the TGI (MCF7 breast) was 13 µM and the GI50 (M14 melanoma) was 2.63 µM. The TGI (M14 melanoma) was 13.3 µM, the GI50 (ACHN renal) was 2.86 µM and the TGI (ACHN renal) was 30.1 µM. It also gave a GI50 (CAKI-1 renal) of 2.25 µM, a TGI (CAKI-1 renal) of 24.4 µM and a GI50 (U251 CNS) of 3.24 µM. It also gave a TGI (U251 CNS) of 18 µM, a GI50 (SF-539 CNS) of 2.04 µM and a TGI (SF-539 CNS) of 6.82 µM. For the same molecule, the GI50 (HCT-116 colon) was 2.04 µM, the TGI (HCT-116 colon) was 21.1 µM and the GI50 (SK-MEL-2 melanoma) was 4.46 µM. For the same molecule, the TGI (SK-MEL-2 melanoma) was 18.8 µM, the GI50 (DU-145 prostate) was 5.09 µM and the TGI (DU-145 prostate) was 17.3 µM. For the same molecule, the GI50 (RPMI-8226 leukemia) was 3 µM, the TGI (RPMI-8226 leukemia) was 22.8 µM and the GI50 (HCT-15 colon) was 4.27 µM. For the same molecule, the TGI (HCT-15 colon) was 70.1 µM, the GI50 (UO-31 renal) was 4.31 µM and the TGI (UO-31 renal) was 36.8 µM. For the same molecule, the GI50 (A498 renal) was 1.78 µM, the TGI (A498 renal) was 13.3 µM and the GI50 (786-0 renal) was 3.36 µM. The TGI (786-0 renal) was 29.8 µM, the GI50 (NCI-H23 lung) was 2.99 µM and the TGI (NCI-H23 lung) was 19.1 µM. It also gave a GI50 (HOP-92 NSCLC) of 2.21 µM, a TGI (HOP-92 NSCLC) of 18.9 µM and a GI50 (UACC-257 melanoma) of 1.25 µM. For the same molecule, the TGI (UACC-257 melanoma) was 8.07 µM, the GI50 (BT-549 breast) was 3.4 µM and the TGI (BT-549 breast) was 15.8 µM. The GI50 (SNB-75 CNS) was 1.05 µM, the TGI (SNB-75 CNS) was 13.3 µM and the GI50 (MALME-3M melanoma) was 0.939 µM. The TGI (MALME-3M melanoma) was 3.05 µM, the GI50 (NCI-H522 lung) was 5.62 µM and the TGI (NCI-H522 lung) was 27.2 µM. It also gave a GI50 (SNB-19 CNS) of 3.79 µM, a TGI (SNB-19 CNS) of 17.2 µM and a GI50 (SK-MEL-5 melanoma) of 0.813 µM. It also gave a TGI (SK-MEL-5 melanoma) of 3 µM, a GI50 (TK-10 renal) of 4.08 µM and a TGI (TK-10 renal) of 43.5 µM. For the same molecule, the GI50 (SF-295 CNS) was 1.33 µM, the TGI (SF-295 CNS) was 12.8 µM and the GI50 (HCC-2998 colon) was 3.12 µM. It also gave a TGI (HCC-2998 colon) of 20.2 µM, a GI50 (RXF 393 renal) of 3.82 µM and a TGI (RXF 393 renal) of 19.3 µM. For the same molecule, the GI50 (A549 NSCLC) was 3.45 µM, the TGI (A549 NSCLC) was 20.2 µM and the GI50 (SN12C renal) was 2.95 µM. The TGI (SN12C renal) was 20.5 µM, the GI50 (OVCAR-5 ovarian) was 5.35 µM and the TGI (OVCAR-5 ovarian) was 26.9 µM. For the same molecule, the GI50 (IGROV1 ovarian) was 3.02 µM, the TGI (IGROV1 ovarian) was 19 µM and the GI50 (SW-620 colon) was 2.16 µM. The TGI (SW-620 colon) was 15.8 µM, the GI50 (NCI-H460 lung) was 2.53 µM and the TGI (NCI-H460 lung) was 12.1 µM. For the same molecule, the GI50 (SR leukemia) was 4.42 µM, the TGI (SR leukemia) was 43.9 µM and the GI50 (OVCAR-3 ovarian) was 2.93 µM. The TGI (OVCAR-3 ovarian) was 11.3 µM, the GI50 (SF-268 CNS) was 3.51 µM and the TGI (SF-268 CNS) was 44.3 µM. The GI50 (MDA-MB-435) was 0.795 µM, the TGI (MDA-MB-435) was 6.21 µM and the GI50 (K-562 leukemia) was 2.78 µM. It also gave a TGI (K-562 leukemia) of 34.6 µM, a GI50 (NCI/ADR-RES ovarian) of 7.09 µM and a TGI (NCI/ADR-RES ovarian) greater than 100 µM. It also gave a GI50 (CCRF-CEM leukemia) of 3.77 µM, a TGI (CCRF-CEM leukemia) of 39 µM and a GI50 (MOLT-4 leukemia) of 5.21 µM. The TGI (MOLT-4 leukemia) was 38.5 µM, the GI50 (HOP-62 NSCLC) was 2.33 µM and the TGI (HOP-62 NSCLC) was 25.6 µM. The GI50 (NCI-H226 lung) was 2.17 µM, the TGI (NCI-H226 lung) was 21.3 µM and the GI50 (HT29 colon) was 3.36 µM. It also gave a TGI (HT29 colon) of 16.4 µM, a GI50 (PC-3 prostate) of 7.45 µM and a TGI (PC-3 prostate) of 44.4 µM.
